US7169759B1, “Tetrapeptide inhibitors of β-secretase” (Elan Pharmaceuticals, Inc., priority 1999, dated 2007)
*1 amine or outer side, *2 acyl side, *3 side chain or, on linkers, in order; H or OH if unused. Where a SMILES comes first, the peptide text is derived from it. [ ]: non-standard residue; d: D form. The star is where a group is joined. Sta = CC(C)C[C@H](N)[C@@H](O)CC(=O)O; X1 = CC(C)CC(N[*:1])C(O)CC(=O)[*:2]; Phg = N[CH](C(=O)O)c1ccccc1; Isovaleryl = CC(C)CC(=O)*; Boc = CC(C)(C)OC(=O)*

Key:
Human brain β-Secretase = biological target: T1, Human brain β-Secretase (Homo sapiens, UniProt P56817); assay: MBP-C125 enzyme inhibition assay (ELISA detection of β-secretase cleavage of MBP-C125 substrate); type: biochemical; settings: pH 4.5, 37° C., 90 minutes, highest concentration 200 μM, read-out: IC50 Group
T1 construct: Human brain β-Secretase from the concentrated HiQ pool prepared Jul; from tissue; host or cells: human brain
T1 sequence (P56817 46-501): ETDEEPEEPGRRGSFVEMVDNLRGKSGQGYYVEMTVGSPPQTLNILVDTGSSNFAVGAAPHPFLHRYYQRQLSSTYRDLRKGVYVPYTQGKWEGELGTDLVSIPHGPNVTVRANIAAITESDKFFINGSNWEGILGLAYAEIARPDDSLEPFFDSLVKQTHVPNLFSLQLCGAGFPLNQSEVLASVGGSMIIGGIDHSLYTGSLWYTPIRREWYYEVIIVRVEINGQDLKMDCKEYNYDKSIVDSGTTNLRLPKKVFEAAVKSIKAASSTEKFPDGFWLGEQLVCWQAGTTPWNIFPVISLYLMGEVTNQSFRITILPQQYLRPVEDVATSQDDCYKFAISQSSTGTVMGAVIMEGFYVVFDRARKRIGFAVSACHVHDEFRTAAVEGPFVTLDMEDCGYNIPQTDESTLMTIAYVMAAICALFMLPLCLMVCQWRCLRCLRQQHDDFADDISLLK
Protocol: Enzyme Inhibition Assay Purpose/Rationale:
The MBP-C125 assay, determines relative inhibition of β-secretase cleavage of an MPB-C125 substrate by the compounds assayed. Human brain β-Secretase from the concentrated HiQ pool prepared Jul. 16, 1997 in 0.20% Triton is used in the assay. Inhibition data was obtained from an ELISA which uses an anti-MBP capture antibody (on precoated and blocked 96-well high binding plates) followed by incubation with diluted enzyme reaction supernatant, incubation with an anti-SW192 specific biotinylated reporter antibody and incubation with streptavidin/alkaline phosphatase. Detection was effected by a fluorescent substrate signal on cleavage by the phosphatase. The ELISA only detected cleavage following Leu 596 at the substrate's Swedish APP 751 mutation site.
Compounds were diluted in a 1:1 dilution series to a six-point concentration curve (two wells per concentration) which took up one 96-plate row per compound tested.
Each of the test compounds was weighed out into a vial and DMSO was added to make up a 10 mM solution. To obtain a final compound concentration of 200 μM at the high point of a 6-point dilution curve, 100 μL of the 10 mM solution was added to well C1 of a 96-well V-bottom plate. Fifty μL of DMSO was added to odd wells of row C across the plate and 1:1 serial dilutions were made. 10 μL of each dilution was added to each of two wells on row C of a corresponding V-bottom plate to which 190 μL of 52 mM NaOAc/7.9% DMSO, pH 4.5 were pre-added. The NaOAc diluted compound plate was spun down to pellet precipitant and 20 μL/well was transferred to a corresponding flat-bottom plate to which 30 μL of ice-cold enzyme-substrate mixture (2.5 μL MBP-C125 substrate, 0.03 μL enzyme and 24.5 ice cold 0.09% TX100 per 30 μl) was added. The compound concentration in the final enzyme reaction was thus 50 times less than the starting concentration. The final reaction mixture of 200 μM compound for the highest curve point was in 5% DMSO, 20 mM NaAc, 0.06% TX100, at pH 4.5. The enzyme reaction was started by warming the plates to 37° C. After 90 minutes at 37° C., 200 μL/well cold specimen diluent was added to stop the reaction and 20 μL/well was transferred to a corresponding α-MBP coated ELISA plate, containing 80 μL/well specimen diluent. This reaction was incubated overnight at 4° C. and the ELISA was developed the next day using a 2 hr. incubation with α-192SW followed by Streptavidin-AP conjugate and flourescent substrate. The signal was read on a fluorescent plate reader.

β-secretase = β-secretase (Homo sapiens, UniProt P56817); assay: assays with β-secretase (pepstatin remark); type: biochemical
Sequence of β-secretase (P56817 46-501): as above

SMILES	IC50 (Human brain β-Secretase)	inhibitory activity in assays with β-secretase (β-secretase)
CSCCC(NC(=O)C(NC(=O)OC(C)(C)C)C(C)C)C(=O)NC(CC(C)C)C(O)CC(=O)NC(C(=O)NC(C)c1ccc(C(=O)O)cc1)C(C)C (centres unmarked) [Example 31]	10 to 99 µM	–
CSCCC(NC(=O)C(NC(=O)OC(C)(C)C)C(C)C)C(=O)NC(CC(C)C)C(O)CC(=O)NC(C(=O)NC1CCC(C(=O)O)C(C(=O)O)C1)C(C)C (centres unmarked) [Example 32]	< 10 µM	–
CSCCC(NC(=O)C(NC(=O)OC(C)(C)C)C(C)C)C(=O)NC(CC(C)C)C(O)CC(=O)NC(C(=O)NC(C(=O)O)c1ccccc1)C(C)C (centres unmarked) [Example 35] (Boc-VM[X1]V[Phg]-OH; configuration not given here)	10 to 99 µM	–
CSCCC(NC(=O)C(NC(=O)OC(C)(C)C)C(C)C)C(=O)NC(CC(C)C)C(O)CC(=O)NC(C(=O)NCCc1ccc(O)c([N+](=O)[O-])c1)C(C)C (centres unmarked) [Example 36]	< 10 µM	–
CC(=O)NC(C(=O)NC(C(=O)NC(Cc1ccccc1)C(O)CC(=O)NC(C(=O)NCc1ccc(C(=O)O)cc1)C(C)C)c1ccccc1)C(C)C (centres unmarked) [Example 37]	< 10 µM	–
CC(C)CC(NC(=O)C(NC(=O)C(NC(=O)OCc1ccccc1)C(C)C)c1ccccc1)C(O)CC(=O)NC(C(=O)NCc1ccc(C(=O)O)cc1)C(C)C (centres unmarked) [Example 38]	10 to 99 µM	–
CC(C)CC(NC(=O)C(NC(=O)C(NC(=O)OC(C)(C)C)C(C)C)c1ccccc1)C(O)CC(=O)NC(C(=O)NCc1ccc(C(=O)O)cc1)C(C)C (centres unmarked) [Example 39]	10 to 99 µM	–
CC(C)CC(=O)N[C@H](C(=O)N[C@H](C(=O)N[C@@H](CC(C)C)[C@@H](O)CC(=O)N[C@@H](C)C(=O)N[C@@H](CC(C)C)[C@@H](O)CC(=O)O)C(C)C)C(C)C [pepstatin] (Isovaleryl-VV[Sta]A[Sta]-OH)	–	no inhibitory activity
